Results published in PubChem BioAssay AID248 (DTP/NCI, 2004).
Values joined by “and” are separate entries in the source; they are usually repeats but may differ in a detail not shown here. Equal entries are not always repeated. Toxic doses and inconclusive results are not listed. Rule as the data show it: active = T/C of 150% or more; inactive = T/C below 125%.

Test system: L1210 leukemia ip in BDF1 mice, survival T/C
Assay: NCI In Vivo Anticancer Drug Screen. Data for tumor model L1210 Leukemia (intraperitoneal) in B6D2F1 (BDF1) mice
Settings: endpoint: mean survival time, higher = longer survival
Outline: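 Transplanted-tumor mice were given test agent; controls received vehicle only. Survival readings from the two groups were divided (treated over control).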

[1] = dose: 25.0 mg/kg/injection, schedule: Q01DX009 (ip), vehicle: saline
[2] = dose: 50.0 mg/kg/injection, schedule: Q01DX009 (ip), vehicle: saline
[3] = dose: 100.0 mg/kg/injection, schedule: Q04DX003 (ip), vehicle: saline
[4] = dose: 100.0 mg/kg/injection, schedule: Q04DX003 (ip), vehicle: saline with Tween-80
[5] = dose: 400.0 mg/kg/injection, schedule: Q04DX003 (ip), vehicle: saline with Tween-80
[6] = dose: 100.0 mg/kg/injection, schedule: Q01DX009 (ip), vehicle: saline
[7] = dose: 200.0 mg/kg/injection, schedule: Q01DX009 (ip), vehicle: saline
[8] = dose: 200.0 mg/kg/injection, schedule: Q04DX003 (ip), vehicle: saline
[9] = dose: 200.0 mg/kg/injection, schedule: Q04DX003 (ip), vehicle: saline with Tween-80
[10] = dose: 100.0 mg/kg/injection, schedule: Q01DX001 (ip), vehicle: saline with Tween-80
[11] = dose: 200.0 mg/kg/injection, schedule: Q01DX001 (ip), vehicle: saline with Tween-80
[12] = dose: 400.0 mg/kg/injection, schedule: Q01DX001 (ip), vehicle: saline with Tween-80
[13] = dose: 100.0 mg/kg/injection, schedule: Q04DX003 (ip), vehicle: Klucel (hydroxypropylcellulose) (HPC)
[14] = dose: 200.0 mg/kg/injection, schedule: Q04DX003 (ip), vehicle: Klucel (hydroxypropylcellulose) (HPC)
[15] = dose: 400.0 mg/kg/injection, schedule: Q04DX003 (ip), vehicle: Klucel (hydroxypropylcellulose) (HPC)
[16] = dose: 100.0 mg/kg/injection, schedule: Q01DX001 (ip), vehicle: carboxymethylcellulose (CMC)
[17] = dose: 200.0 mg/kg/injection, schedule: Q01DX001 (ip), vehicle: carboxymethylcellulose (CMC)
[18] = dose: 400.0 mg/kg/injection, schedule: Q01DX001 (ip), vehicle: carboxymethylcellulose (CMC)

Measured: T/C

O=[N+]([O-])c1ccc(NS(=O)(=O)c2ccc(Cl)c(Cl)c2)cc1
inactive: dose: 12.5 mg/kg/injection, schedule: Q01DX001 (ip), vehicle: other 92 % of control | dose: 12.5 mg/kg/injection, schedule: Q01DX009 (ip), vehicle: gum acacia 101 % of control | dose: 12.5 mg/kg/injection, schedule: Q04DX003 (ip), vehicle: other 95 % of control | dose: 25.0 mg/kg/injection, schedule: Q01DX001 (ip), vehicle: other 97 % of control | dose: 25.0 mg/kg/injection, schedule: Q01DX009 (ip), vehicle: gum acacia 91 % of control | dose: 25.0 mg/kg/injection, schedule: Q04DX003 (ip), vehicle: other 94 % of control | dose: 50.0 mg/kg/injection, schedule: Q01DX001 (ip), vehicle: other 97 % of control | dose: 50.0 mg/kg/injection, schedule: Q04DX003 (ip), vehicle: other 94 % of control

COc1c2c(cc3c1C(Cl)N(C)CC3)OCO2 (stereo not given)
inactive: [1] 98 % of control | dose: 25.0 mg/kg/injection, schedule: Q04DX003 (ip), vehicle: saline 103 % of control | [2] 104 % of control | dose: 50.0 mg/kg/injection, schedule: Q04DX003 (ip), vehicle: saline 97 % of control | [3] 98 % of control and 102 % of control

c1ccc(-c2oc(-c3ccccc3)c(-c3ccccc3)c2-c2ccccc2)cc1
inactive: [4] 93 % of control | [5] 93 % of control

CCOC(=O)c1ncc2cnccn12
inactive: [2] 92 % of control | [6] 120 % of control | [3] 107 % of control | [7] 94 % of control | [8] 104 % of control

COc1ccc(CN(CCO)C(C)=O)cc1
inactive: [6] 100 % of control | [3] 112 % of control | [7] 105 % of control | [8] 107 % of control | dose: 400.0 mg/kg/injection, schedule: Q01DX009 (ip), vehicle: saline 103 % of control | dose: 400.0 mg/kg/injection, schedule: Q04DX003 (ip), vehicle: saline 119 % of control

COc1ccc(Nc2nc(N)nc(CNc3ccc(C)cc3)n2)cc1
inactive: [4] 94 % of control | [9] 92 % of control | [5] 96 % of control

CN(C)N=Nc1c(O)ccc2c1CCC1C2CCC2(C)C(=O)CCC12 (stereo not given)
inactive: dose: 12.5 mg/kg/injection, schedule: Q01DX009 (ip), vehicle: Klucel (hydroxypropylcellulose) (HPC) 92 % of control | dose: 25.0 mg/kg/injection, schedule: Q01DX009 (ip), vehicle: Klucel (hydroxypropylcellulose) (HPC) 94 % of control | dose: 50.0 mg/kg/injection, schedule: Q01DX009 (ip), vehicle: Klucel (hydroxypropylcellulose) (HPC) 107 % of control

COc1ccc(C(C)=O)cc1OCc1ccccc1
inactive: dose: 100.0 mg/kg/injection, schedule: Q01DX009 (ip), vehicle: water 112 % of control | dose: 100.0 mg/kg/injection, schedule: Q04DX003 (ip), vehicle: water 98 % of control | dose: 200.0 mg/kg/injection, schedule: Q01DX009 (ip), vehicle: water 108 % of control | dose: 200.0 mg/kg/injection, schedule: Q04DX003 (ip), vehicle: water 100 % of control | dose: 400.0 mg/kg/injection, schedule: Q01DX009 (ip), vehicle: water 103 % of control | dose: 400.0 mg/kg/injection, schedule: Q04DX003 (ip), vehicle: water 93 % of control

Cl/C(=C/C=C(c1ccccc1)c1ccccc1)c1ccccc1
inactive: dose: 100.0 mg/kg/injection, schedule: Q04DX002 (ip), vehicle: saline with Tween-80 88 % of control | dose: 200.0 mg/kg/injection, schedule: Q04DX002 (ip), vehicle: saline with Tween-80 88 % of control

O=C(O)COc1cc(Cl)ccc1Cl
inactive: dose: 100.0 mg/kg/injection, schedule: Q04DX002 (ip), vehicle: Klucel (hydroxypropylcellulose) (HPC) 95 % of control | dose: 200.0 mg/kg/injection, schedule: Q04DX002 (ip), vehicle: Klucel (hydroxypropylcellulose) (HPC) 95 % of control | dose: 400.0 mg/kg/injection, schedule: Q04DX002 (ip), vehicle: Klucel (hydroxypropylcellulose) (HPC) 100 % of control

CCOC(=O)c1ccc(NCc2nnc3nc(N)nc(SCc4ccccc4)c3n2)cc1
inactive: [10] 96 % of control | [11] 98 % of control | [12] 92 % of control

CC1(C)CC2(OC2c2cccc([N+](=O)[O-])c2)C(=O)c2ccccc21 (stereo not given)
inactive: dose: 100.0 mg/kg/injection, schedule: Q01DX001 (ip), vehicle: Klucel (hydroxypropylcellulose) (HPC) 90 % of control | dose: 200.0 mg/kg/injection, schedule: Q01DX001 (ip), vehicle: Klucel (hydroxypropylcellulose) (HPC) 95 % of control | dose: 400.0 mg/kg/injection, schedule: Q01DX001 (ip), vehicle: Klucel (hydroxypropylcellulose) (HPC) 92 % of control

O=C1c2ccccc2C(=O)N1CCCN1C(=O)c2ccccc2C1=O
inactive: [10] 111 % of control | dose: 100.0 mg/kg/injection, schedule: Q04DX002 (ip), vehicle: gum acacia 104 % of control | [11] 102 % of control | dose: 200.0 mg/kg/injection, schedule: Q04DX002 (ip), vehicle: gum acacia 96 % of control | [12] 100 % of control | dose: 400.0 mg/kg/injection, schedule: Q04DX002 (ip), vehicle: gum acacia 93 % of control

CC1(C)N=C(N)N=C(N)N1c1ccc(CCCCc2ccccc2Cl)cc1
inactive: dose: 12.5 mg/kg/injection, schedule: Q01DX001 (ip), vehicle: Klucel (hydroxypropylcellulose) (HPC) 95 % of control | dose: 25.0 mg/kg/injection, schedule: Q01DX001 (ip), vehicle: Klucel (hydroxypropylcellulose) (HPC) 98 % of control

O=C(C(F)(F)F)C(F)(F)F
inactive: dose: 6.25 mg/kg/injection, schedule: Q01DX009 (ip), vehicle: saline 95 % of control | dose: 12.5 mg/kg/injection, schedule: Q01DX009 (ip), vehicle: saline 98 % of control | [1] 114 % of control | [6] 88 % of control

O=S(=O)(c1ccccc1)c1ccccc1
inactive: [13] 104 % of control | [4] 95 % of control | [14] 111 % of control | [9] 103 % of control | [15] 87 % of control | [5] 89 % of control

Cc1ccc(S(=O)(=O)S/C(=N\c2ccccn2)Nc2ccccn2)cc1
inactive: [16] 98 % of control | [17] 93 % of control | [18] 91 % of control

CN1CN(c2ccccc2)C2(CCN(CCCCCCCl)CC2)C1=O
inactive: dose: 75.0 mg/kg/injection, schedule: Q04DX003 (ip), vehicle: Klucel (hydroxypropylcellulose) (HPC) 95 % of control | dose: 150.0 mg/kg/injection, schedule: Q04DX003 (ip), vehicle: Klucel (hydroxypropylcellulose) (HPC) 96 % of control | dose: 300.0 mg/kg/injection, schedule: Q04DX003 (ip), vehicle: Klucel (hydroxypropylcellulose) (HPC) 95 % of control

Nc1c(Cl)ncnc1NCCCCCO
inactive: [13] 100 % of control | [14] 94 % of control | [15] 107 % of control

CCOc1ccc(/C=N\NC(=O)c2ccco2)cc1OCC
inactive: [16] 93 % of control | [17] 95 % of control | [18] 97 % of control

CC(Cl)CN1c2ccccc2Sc2ccc(Cl)cc21 (stereo not given)
inactive: [16] 97 % of control | [17] 95 % of control | [18] 92 % of control

CCCCc1ccc(C(=O)c2ccccc2)c2c1C(=O)c1ccccc1C2=O
inactive: dose: 100.0 mg/kg/injection, schedule: Q01DX009 (ip), vehicle: Klucel (hydroxypropylcellulose) (HPC) 97 % of control | [13] 92 % of control | dose: 200.0 mg/kg/injection, schedule: Q01DX009 (ip), vehicle: Klucel (hydroxypropylcellulose) (HPC) 94 % of control | [14] 92 % of control | dose: 400.0 mg/kg/injection, schedule: Q01DX009 (ip), vehicle: Klucel (hydroxypropylcellulose) (HPC) 95 % of control | [15] 96 % of control

CCOC(=O)C(Br)C(Br)c1cccc([N+](=O)[O-])c1 (stereo not given)
inactive: dose: 100.0 mg/kg/injection, schedule: Q01DX009 (ip), vehicle: other 105 % of control | dose: 100.0 mg/kg/injection, schedule: Q04DX003 (ip), vehicle: other 106 % of control | dose: 200.0 mg/kg/injection, schedule: Q04DX003 (ip), vehicle: other 94 % of control | dose: 400.0 mg/kg/injection, schedule: Q04DX003 (ip), vehicle: other 86 % of control

C=CC(=O)N1CCOCC1
inactive: [4] 113 % of control | [9] 100 % of control | [5] 108 % of control
